According to patent publication US5466436A, “Medicaments for treating inflammatory conditions or for analgesia” (Glaxo Group Limited, priority 1991, dated 1995):
Counter-ions that a name gives are not always drawn.

Tests used:
[1] = system: indomethacin-induced gastric antral ulceration; assay: Inhibition of indomethacin-induced gastric antral ulceration in the rat (modified Satoh et al.); assay type: in vivo; details: for potency compared with other test compounds (in words): ranitidine bismuth citrate versus ranitidine hydrochloride and De-Nol, po; for potency compared with other test compounds (in words) / inhibition of indomethacin-induced lesions (in words): rats; for inhibition of indomethacin-induced lesions (in words): ranitidine bismuth citrate 1 to 100 mg/kg po
Method: The ability of ranitidine bismuth citrate to prevent indomethacin-induced gastric antral ulceration was compared with that of ranitidine hydrochloride and De-Nol™. Female rats, which had been fasted for 24 hours and then re-fed, received ranitidine bismuth citrate (1 to 100mg/kg), ranitidine hydrochloride (10 to 100mg/kg) or De-Nol™ (3 to 100mg/kg) by oral gavage. Ranitidine bismuth citrate was administered as a suspension and the other test compounds as solutions. Thirty minutes after dosing with the test compound, animals received indomethacin (60mg/kg sc) as an ulcerogenic stimulus and after a further 6 hours the animals were killed and the antral region assessed macroscopically for damage.

[2] = system: mucosal lesions of the gastrointestinal tract caused by non-steroidal anti-inflammatory drugs; assay: Tests in animals and humans: mucosal lesions of the gastrointestinal tract caused by non-steroidal anti-inflammatory drugs; assay type: in vivo
[3] = system: aspirin-induced injury to the gastric mucosa; details: human clinical study, N. Hudson et al., Gut 1992, 33 supplement, s47; cited from earlier work
[4] = listed as Ranitidine bismuth citrate
[5] = listed as ranitidine bismuth citrate

Molecule: CNC(=C[N+](=O)[O-])NCCSCc1ccc(CN(C)C)o1 [Ranitidine Hydrochloride, ranitidine hydrochloride, reference compound]
- ED50 ([1]; Rattus norvegicus, female rats, oral gavage 30 min before indomethacin 60 mg/kg sc, antral damage assessed after a further 6 hours): 23.4 mg/kg
- potency compared with other test compounds (in words) [1]: markedly less potent

Molecule: N-[2-[[[5-[(dimethylamino)methyl]-2-furanyl]methyl]thio]ethyl]-N'-methyl-2-nitro-1,1-ethenediamine 2-hydroxy-1,2,3-propanetricarboxylate bismuth (3^+) complex [Ranitidine Bismuth Citrate]
- ED50 for inhibition of indomethacin-induced antral ulceration ([1]; female rats, oral gavage 30 min before indomethacin 60 mg/kg sc, antral damage assessed after a further 6 hours): 4.5 mg/kg p.o.
- inhibition of indomethacin-induced lesions (in words) [1, 4]: dose-related inhibition of indomethacin-induced lesions
- inhibition of indomethacin-induced lesions (in words) [1, 5]: prevent indomethacin induced gastric antral ulceration
- potency compared with other test compounds (in words) [1, 4]: relatively potent
- potency compared with other test compounds (in words) [1, 5]: markedly more potent than both ranitidine hydrochloride and tripotassium dicitrato bismuthate as DeNol™
- reduction of NSAID-caused mucosal lesions of the gastrointestinal tract (in words) [2]: significantly reduced
- protection from aspirin-induced injury to the gastric mucosa (in words) [3]: substantial protection from aspirin-induced injury to the gastric mucosa
